According to patent US8318710B2, “Skin treatments” (priority 2003, dated 2012):
Read-outs that look alike come from different tables or passages of the source.

Key:
[1] = test system: RAR reporter gene construct (RAREs) with over-expressed RARγ, RXRα and LXRα in Cos-7 cells; settings: 24 hours, fold activation over vehicle (ethanol) control
[2] = test system: CRABPII protein in primary dermal fibroblasts; assay: Fibroblast expression of CRABPII (Western blot); type: cell-based; settings: 24 hours; for Band Intensity (arbitrary units): CRABPII band; for Relative band intensity: relative to vehicle
Method: Cells were then plated out in 12 well plates at 38,000 cells per well, and incubated for 24 hours. […] Cells were treated with vehicle (ethanol) or 22R hydroxycholesterol and/or retinoic acid in 1 ml fresh medium (DMEM plus 10% FCS). Treatments were prepared as fresh 1000× stocks and diluted into medium immediately before addition to the cells. […] Cells were washed in 1 ml phosphate buffer saline and trypsinised from the plates. Cells were pelleted at 13000 g for 5 min and washed with 1 ml PBS. Cells were re-pelleted and re-suspended in protein lysis buffer (4M urea, 0.5% SDS, 10 mM EDTA in PBS with protease inhibitor cocktail). Samples were equilibrated for total protein content and the proteins separated by SDS-PAGE and blotted to nitrocellulose. Membranes were probed with antisera against the CRABPII protein and detected by ECL-plus. Intensity of signal was captured using a STORM scanner and quantified using ImageQuant 5.2.

Row | SMILES | Fold activity +/− sd (n = 3) ([1]; 35 μM 22R hydroxycholesterol) | % change from vehicle ([2]; 5 μM 22R-hydroxycholesterol) | Band Intensity (arbitrary units) ([2]; 5 μM 22R-hydroxycholesterol) | Relative band intensity ([2]; 5 μM 22R-hydroxycholesterol) | Fold activity +/− sd (n = 3) ([1]; 0.1 μM all-trans retinoic acid) | % change from vehicle ([2]; 1 nM all-trans retinoic acid) | Band Intensity (arbitrary units) ([2]; 1 nM all-trans retinoic acid) | Relative band intensity ([2]; 1 nM all-trans retinoic acid)
1 | CC(C)CC[C@@H](O)[C@@H](C)[C@H]1CC[C@H]2[C@@H]3CC=C4C[C@@H](O)CC[C@]4(C)[C@H]3CC[C@]12C [22R hydroxycholesterol] | 1.209 +/− 0.030 fold | −0.8% | 167664.2 arbitrary units | 0.992 |  |  |  | 
2 | CC1=C(/C=C/C(C)=C/C=C/C(C)=C/C(=O)O)C(C)(C)CCC1 [all-trans retinoic acid] |  |  |  |  | 1.733 +/− 0.445 fold | +35.3% | 228603.88 arbitrary units | 1.353
